# Results published in patent publication US11779628B2, “Use of cell-permeable peptide inhibitors of the JNK signal transduction pathway for the treatment of various diseases” (Xigen Inflammation Ltd., priority 2014, dated 2023).
# Read-outs that look alike come from different tables or passages of the source. Non-standard residues stand in square brackets, D forms with d. No end group written: not given here.
# What was measured:
# JNK = settings: Dickens et al. 1997; cited from earlier work
# [1] = system: Sprague-Dawley albino rats, light-induced photoreceptor cell death; assay type: in vivo; settings: PBN
# Text: The aim of this study was to investigate the dose effect of XG-102 on light-induced photoreceptor cell death.
# 50 male Rat (Sprague-Dawley (albinos rat); approximately 8 weeks; 200-250 g (on ordering)) have been used. Rats are most commonly used in this experimental model. Animals were examined before study, and particular attention was paid to the eyes. Animals were held in observation for 2 weeks following their arrival. Animals were observed daily for signs of illness. Only healthy animals with no ocular abnormalities were accepted for use in experiments. Animals were housed individually in standard cages (420×270×190 mm)^ii. All animals were housed under identical environmental conditions. The temperature was held at 22±2° C. and the relative humidity at 55±10%. Rooms were continuously ventilated (15 times per hour). A cycle of 12 hours light (200-300 lx) and 12 hours darkness was automatically controlled. These parameters were continuously controlled and recorded. Throughout the study, animals had free access to food and water. They were fed a standard dry pellet diet. Tap water was available ad libitum from plastic bottles.
# Forty-eight (48) rats were randomly divided into six (6) groups of eight (8) animals each. Test item (XG-102: 30 mg/ml, 3 mg/ml, and 0.3 mg/ml) and vehicle (0.9% NaCl) were administered by intravitreal injection in right eyes the day before induction. The reference (Phenyl-N-test-Butylnitrone (PBN) (50 mg/kg)) and vehicle were intraperitoneally injected 30 min before induction then, 3 times during 12 hours of light exposition, then once after induction. Animals were placed in constant light (7000 lux) for 24 h. Electroretinograms (ERG) were recorded before light treatment and on days 9, 16 and 23 after induction. Eyes were then taken for histology and outer nuclear layer (ONL) thickness assessment. The table below summarizes the allocation of animals in treatment groups:
# For the intravitreal injection animals were anesthetized by intramuscular injection of a mixture of xylazine/ketamine. Test item (5 μl) and vehicle (5 μl) were injected in the right eye. The injection was performed under an operating microscope in the supratemporal area at pars plana using a 33G-needle mounted on a 50 μl Hamilton. The filled syringe was mounted into the UltraMicroPump III to achieve accurate injection in microliter range. Reference and vehicle were injected intraperitoneally at a dose volume of 2.5 ml/kg using a 30G-needle mounted on a 1 ml-syringe.
# Light Exposure: The rats that had been dark-adapted overnight were exposed for 24 hours to a continuous white fluorescent light (7000 Ix) in clear plastic cages. Each cage contained one rat. After exposure, the rats returned to rearing cyclic light conditions.
# ERG was recorded before induction and 7, 14 and 21 days after cessation of exposure (Days 9, 16 and 23) on right eyes of dark-adapted and anesthetized animals. The latency times (for a- and b-wave) and the a-wave and b-wave amplitudes were measured for each ERG; the latency times were expressed as millisecond and the a-wave and b-wave as a percentage of the baseline value obtained before light exposure. 15 min before measurement 10 μl Mydriaticum® (0.5% tropicamide) were instilled for pupillary dilatation.
# ERG Parameters: • Color: white maximum. • Maximum intensity: 2.6 cd·s/m^2 (0 dB); Duration 0.24 ms; number of flash: 1. • Filter: 50 Hz. • Impedence Threshold: 90 kΩ.
# Measurement of the ONL Thickness: After ERG testing, animal was euthanized by an overdose of pentobarbital and the right eyes were enucleated, fixed and embedded in paraffin. Sections (5 μm thick) were performed along the vertical meridian and stained with Trichrome-Masson. The vertical meridian included the optic nerve.
# Group mean values and standard deviation were calculated. A statistical Mann and Whitney test was used to evaluate the differences between pair-wise groups. For comparison between time-point into each vehicle groups, a Friedman test was used. […]
# TC-3 cell cultures = assay: Cellular import of fluorescein-labeled TAT and TAT-IB1(s) peptides; assay type: cell-based; settings: fluorescein-labeled peptide 1 μM
# Experimental: The ability of the L- and D-enantiomeric forms of TAT and TAT-IB1(s) peptides (“TAT-IB peptides”) to enter cells was evaluated. L-TAT, D-TAT, L-TAT-IB1(s), and D-TAT-IB1(s) peptides [SEQ ID NOs: 5, 6, 9 and 12, respectively] were labeled by N-terminal addition of a glycine residue conjugated to fluorescein. Labeled peptides (1 μM) were added to TC-3 cell cultures, which were maintained as described in Example 3. At predetermined times cells were washed with PBS and fixed for five minutes in ice-cold methanol-acetone (1:1) before being examined under a fluorescence microscope. Fluorescein-labeled BSA (1 μM, 12 moles/mole BSA) was used as a control.
# Little to no signal was present at 48 hours.
# Fluorescent signals from these all-D retro-inverso peptides were still very strong 1 week later, and the signal was only slightly diminished at 2 weeks post treatment.
# [2] = system: female Sprague-Dawley rats, CYP-induced cystitis; assay: CYP-induced acute cystitis, intravesical treatment; assay type: in vivo, rat; settings: 50 mg/mL i.ves., 24 h post-CYP
# Experimental: (§1) This preclinical model is well-used to test therapeutic approaches for the treatment of interstitial cystitis/painful bladder syndrome (IC/PBS).
# (§2) Animals were acclimatized to the laboratory conditions for at least 3 days before the start of any experiments. The animals were allocated to the following four experimental groups (n=10 animals per group):
# (§3) To induce acute cystitis, a single i.p. injection of CYP at a dose of 150 mg/kg in a final volume of 5 mL/kg was performed. Control rats received physiological saline under the same experimental conditions as CYP (final volume of 5 mL/kg, i.p.).
# (§4) On the day of each experiment, weight of rats was recorded.
# Standardized conditions including fixed time-of-day (a.m. to minimize the potential circadian variations in the behaviours responses) and single-experimenter testing of all animals were applied to minimize variability behavior-based pain testing. Visceral pain including allodynia and hyperalgesia was evaluated by applying to the lower abdomen, close to the urinary bladder, a set of 8 calibrated von Frey filaments of increasing forces (1, 2, 4, 6, 8, 10, 26 and 60 g) with an interstimulus interval of 5 seconds. Prior testing, the abdominal area designed for mechanical stimulation of each animal was shaved. Animals were then placed on a raised wire mesh floor under individual transparent Plexiglas box and acclimatized for at least 30 minutes before starting the von Frey test. Filaments were then applied 1-2 seconds through the mesh floor with enough strength to cause the filament to slightly bend. Each filament was tested 3 times. Care was taken to stimulate different areas within the lower abdominal region in the vicinity of the urinary bladder to avoid desensitization.
# Urinary bladders were rapidly collected and cleaned from lipoid tissue. […] Finally, wall thickness was measured using a digital caliper by placing the bladder wall between the two outside jaws.
# [3] = system: female Sprague-Dawley rats, CYP-induced cystitis; assay: CYP-induced acute cystitis, intravenous treatment; assay type: in vivo, rat; settings: XG-102 2 mg/kg i.v. or ibuprofen 10 mg/kg i.v., 24 h post-CYP
# Experimental: as §1, §2, §3, §4
# Standardized conditions including fixed time-of-day (a.m. to minimize the potential circadian variations in the behaviours responses) and single-experimenter testing of all animals were applied to minimize variability behavior-based pain testing. Visceral pain including allodynia and hyperalgesia was evaluated by applying to the lower abdomen, close to the urinary bladder, a set of 8 calibrated von Frey filaments of increasing forces (1, 2, 4, 6, 8, 10, 26 and 60 g) with an interstimulus interval of 5 seconds. Prior testing, the abdominal area designed for mechanical stimulation of each animal was shaved. […]
# TC-3 cells = assay: IL-1 induced pancreatic beta-cell death; assay type: cell-based; settings: single addition 1 μM, two days with IL-1
# Experimental: Inhibition of IL-1 induced pancreatic beta-cell death by the D-TAT-IB1(s) peptide was analyzed. […] Apoptotic cells were then counted after two days of incubation with IL-1 by use of Propidium Iodide and Hoechst 33342 nuclear staining. A minimum of 1,000 cells were counted for each experiment. Standard Error of the Means (SEM) are indicated, n=5. […] Long term inhibition of IL-1P induced cell-death by the D-TAT-IB1 peptide was also analyzed. […] Apoptotic cells were then counted after 15 days of incubation with IL-1 by use of propidium iodide and Hoechst 33342 nuclear staining. […] A minimum of 1.000 cells were counted for each experiment.
# [4] = system: patients after ocular surgery; assay: Clinical Phase II, post-surgery intraocular inflammation: safety
# Experimental: The criteria for evaluation of safety were: • a. Visual acuity by ETDRS method • b. Slit Lamp examination findings • c. The results of the ophthalmic fundus examination • d. Intra Ocular Pressure (IOP) measurements • e. Vital signs (blood pressure (BP), pulse rate (PR) and rhythm) • f. The results of the hematology and chemistry laboratory tests • g. The occurrence of Adverse Events • h. Presence (or not) of XG-102 in plasma 1 hour after the administration of study treatment in a subset of patients (approximately 30).
# An AE is therefore any unfavorable and unintended sign, symptom or disease temporally associated with the use of a medicinal product, whether or not considered related to the medicinal product.
# A Suspected Unexpected Serious Adverse Reaction (SUSAR) was defined as a suspected adverse reaction related to the treatment that is both unexpected (i.e. not consistent with the expected outcomes of the study treatment being administered) and serious.
# Patients were analyzed as treated, i.e. according to the treatment which they received. The safety set was the primary analysis set for the safety analysis.
# The present study was a double-blind study. All patients who were randomized and for whom the sub-conjunctival injection was started are included in the safety analysis by dose group. […] If the study treatment eye drops were stopped prematurely (i.e. before day 21), the patients concerned continued follow-up until day 28, in accordance with the study protocol.
# Investigators assessed (in a blinded manner) the relationship of each reported AE to any of the study treatments. An event was considered to be related to study treatment if the Investigator ticked either ‘possible’ or ‘probable’ as the reply to this question.
# [5] = Dexamethasone group, blinded assessment
molecule,measurement,setting,value
IPSPSVEEPHKHRPTTLRLTTLGAQDS (Description of sequence Peptide IB2-long (see Table 1)),efficiency in binding JNK relative to c-Jun or ATF2,JNK,approximately 100 fold
"CC(C)(C)[N+]([O-])=Cc1ccccc1 [PBN, Phenyl-N-tert-Butylnitrone]",recovery of the b-wave (% of baseline),[1]; Day 9,100%
same,recovery of the b-wave (% of baseline),[1]; Day 16,103.6%
same,decrease of ONL thickness vs untreated eyes,[1]; Day 23,16%
same,recovery of the a-wave (% of baseline),[1]; Day 23,76.2%
same,recovery of the b-wave (% of baseline),[1]; Day 23,102.4%
GRKKRRQRRR (Description of sequence Peptide L-TAT (see Table 1)),entry into cells,TC-3 cell cultures,efficiently and rapidly (less than five minutes) entered cells
GRKKRRQRRRPPRPKRPTTLNLFPQVPRSQD [L-TAT-IB1(s)],entry into cells,TC-3 cell cultures,efficiently and rapidly (less than five minutes) entered cells
CC(C)Cc1ccc(C(C)C(=O)O)cc1 (stereo not shown) [ibuprofen],haemorrhage scores,[2],no significant change was observed regarding haemorrhage scores
same,nociceptive scores,[2],significant decrease of nociceptive scores
same,urinary bladder wall thickness,[2],a significant decrease was observed in urinary bladder wall thickness
same,nociceptive threshold,[2]; vs vehicle,Nociceptive threshold was significantly increased by ibuprofen treatment
same,nociceptive scores,[3],significantly decrease nociceptive scores
same,nociceptive threshold,[3],Nociceptive threshold was significantly increased by ibuprofen treatment
TDQSRPVQPFLNLTTPRKPRYTDPPRRRQRRKKRG ([dT][dD][dQ][dS][dR][dP][dV][dQ][dP][dF][dL][dN][dL][dT][dT][dP][dR][dK][dP][dR][dY][dT][dD][dP][dP][dR][dR][dR][dQ][dR][dR][dK][dK][dR]G) [D-TAT-IB1],IL-1 induced apoptosis,TC-3 cells,decreased IL-1 induced apoptosis to a similar extent as L-TAT-IB peptides
PGTGCGDTYRPKRPTTLNLFPQVPRSQDT (Description of sequence peptide IB1-long (see Table 1)),efficiency in binding JNK relative to c-Jun or ATF2,JNK,approximately 100 fold
"C[C@@H]1C[C@H]2[C@@H]3CCC4=CC(=O)C=C[C@]4(C)[C@@]3(F)[C@@H](O)C[C@]2(C)[C@@]1(O)C(=O)CO [Dexamethasone, reference compound]",Reported AEs by severity: Mild,[4]; Dexamethasone dose group,42 (76.4%) number of events (% of reported events)
same,Reported AEs by severity: Moderate,[4]; Dexamethasone dose group,9 (16.4%) number of events (% of reported events)
same,Reported AEs by severity: Severe,[4]; Dexamethasone dose group,4 (7.3%) number of events (% of reported events)
same,AEs considered by the Investigator to be related to Dexamethasone,[4]; [5],2 (3.6%) Total # events (%)
same,AEs considered by the Investigator to be related to XG-102,[4]; [5],13 (23.64%) Total # events (%)
same,"Intraocular pressure increased, patients",[4]; dexamethasone,14%
same,events in SOC EYE DISORDERS,[4]; dexamethasone,30 events
same,patients with SAEs,[4]; dexamethasone,2 patients
same,patients with events in SOC EYE DISORDERS,[4]; dexamethasone,16 (32%)
